Consider 1 compound from publication PMC8276662, “Synergy of alanine and gentamicin to reduce nitric oxide for elevating killing efficacy to antibiotic-resistant Vibrio alginolyticus” (Virulence, 2021).

Molecules are shown by their SMILES.

This experiment addresses T1, CysJ (rCysJ; NOS-like protein) (Vibrio alginolyticus, UniProt A0A2I3CBL6).
T1 construct: dimer by blue native PAGE
T1 sequence (A0A2I3CBL6 1-623): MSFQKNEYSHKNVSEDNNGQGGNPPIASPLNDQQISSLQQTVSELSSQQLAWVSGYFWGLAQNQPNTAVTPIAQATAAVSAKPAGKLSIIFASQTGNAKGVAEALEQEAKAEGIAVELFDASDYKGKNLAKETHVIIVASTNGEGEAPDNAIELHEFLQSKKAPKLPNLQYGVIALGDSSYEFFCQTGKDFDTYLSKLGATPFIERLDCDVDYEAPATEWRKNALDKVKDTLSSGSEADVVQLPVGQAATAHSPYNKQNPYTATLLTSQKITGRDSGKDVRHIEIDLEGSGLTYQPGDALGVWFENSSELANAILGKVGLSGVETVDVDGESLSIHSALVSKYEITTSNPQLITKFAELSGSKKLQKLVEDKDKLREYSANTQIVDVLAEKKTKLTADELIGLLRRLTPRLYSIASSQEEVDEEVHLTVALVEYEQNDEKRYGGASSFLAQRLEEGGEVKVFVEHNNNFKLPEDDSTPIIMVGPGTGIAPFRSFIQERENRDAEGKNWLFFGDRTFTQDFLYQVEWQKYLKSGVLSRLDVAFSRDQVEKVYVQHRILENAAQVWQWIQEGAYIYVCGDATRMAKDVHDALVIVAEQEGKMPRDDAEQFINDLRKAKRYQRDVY
The experiment can be described thus: colorimetric nitric oxide synthase activity kit, A530. It counts as biochemical. Particulars: 0.5 mM L-NMMA, preincubated 30 C 2 h (as described for lysate proteins); assay 37 C 15 min; mode not stated.

For the compound `CNC(=N)NCCC[C@H](N)C(=O)O` [L-NMMA], the “activity of NOS was reduced” value is reported as “When L-NMMA was used, activity of NOS was reduced (Figure 8b)”.
